Source: patent US8148392B2, “2-indolyl imidazo [4,5-d] phenanthroline derivatives and their use in the treatment of cancer” (Lorus Therapeutics Inc., priority 2005, dated 2012)
Entries after “also recorded” stand apart in the source; their conditions may differ.

Assays:
KLF4 = KLF4 mRNA in HT-29 tumour xenografts, RT-PCR; assay type: in vivo, CD-1 female nude mice
Experimental: The ability of compound 3 to modulate expression of KLF4 in HT-29 colon tumour xenograft was determined as follows. Groups of 10 CD-1 female nude mice (6-7 weeks) were injected in the lower mid back with human colon adenocarcinoma cells HT-29 cells (3×10^6 cells in 0.1 ml PBS) subcutaneously. […] After the treatment period, the animals were sacrificed, the tumours excised, and total RNA was extracted from 30 mg of tumour tissue using Rneasy Mini kit (QIAGEN, Valencia, Calif.). The expression of KLF4 mRNA was analyzed by real-time polymerase chain reaction using the comparative CT method as described in Example 19. […]
To examine the effect of compound 3-mediated changes in KLF4 and Cyclin D1 expressions in vivo, the expressions of respective genes in xenograft tissues of vehicle control (Lutrol) and compound 3-treated HT-29 colon cancer cell-transplanted mice were analyzed by RT-PCR (FIG. 46). Briefly, KLF4 and Cyclin D1 gene expression in HT-29 xenograft tissues after 14 days treatment with compound 3 was measured as follows. […] Total RNA was extracted and gene expression level was determined by RT-PCR. […]
The tumor regression efficacy of compound 3 was assessed in compound 3-treated HT-29-transplanted athymic mice (FIG. 54A), and correlated with gene expressions of MTF-1, KLF4 and Cyclin D1 in HT-29 xenograft tissues (FIG. 54B). […]

[1] = test system: human leukemia CCRF-CEM cells; test: Cell cycle analysis by flow cytometry, CCRF-CEM; assay type: cell-based; settings: 0.25-1 μM, 24 hours
Experimental: To test the ability of compounds of Formula I to block cell cycle progression, compound 3 was incubated with human colon carcinoma HT-29 or human leukemia CCRF-CEM cells to determine alterations in populations of cells at different stages of the cell cycle using flow cytometric analysis. HT-29 cells were maintained as described in Example 13. CCRF-CEM cells used in this example and subsequent examples were maintained as suspension cells in a growth medium; RPMI-1640 medium (Sigma, St. Louis, Mo.), supplemented with 2 mM L-glutamine (Gibco, Grand Island, N.Y.), 10% fetal bovine serum (FBS) (Multicell, WISENT Inc. St-Bruno, QC), antibiotic-antimycotic (Multicell), at 37° C. in a 5% CO2-humidified incubator.
The assay was carried out as follows. For HT-29 cells, 1×10^6 cells in 10 mL volume of the growth medium were seeded in 100 mm dishes. For CCRF-CEM cells, 3×10^6 cells in 10 mL volume of the growth medium were seeded in 25 cm^2 flask. […] The fluorescence of stained cells was analyzed using FACScan flow cytometer and the Cell Quest program (BD Biosciences, San Jose, Calif.). Data were evaluated using Modfit software (Verity software House, Topsham, Me.). Values were determined by gate analysis of flow cytometric plots. […]

KLF5 = KLF5 gene expression in HT-29 cells, RT-PCR; assay type: cell-based, human; settings: HT-29, 1 μM, after 4 hr
Experimental: HT-29 cells were treated with 1 μM compound 3 for indicated time (FIG. 41B). Total RNA was extracted and gene expression level was determined by RT-PCR.

[2] = test system: MT-1 isolated from rabbit liver; test: Chelation of zinc from metallothionein MT-1, PAR colorimetric zinc assay; assay type: biochemical; settings: 25 μM MT, compound 0.15 to 60 μM, 15 min
Text: Intracellular zinc exists as a labile pool, loosely bound to storage proteins metallothioneins (MT), which store up to 7 or 8 zinc per molecule. The labile zinc pool donates zinc to enzymes or transcription factors, which require reversible binding with zinc for their full activity (Tapiero and Tew (2003) Biomed Pharmacother 57(9): 399-411). The efficiency of compound 3 to remove zinc from MT was investigated. MT-1 isolated from rabbit liver, containing mainly MT-1a and MT-2e with ˜7 zinc per molecule in ≧95% of MT was purchased from Alexis Biochemicals (Lausen, Switzerland). The content of zinc in MT was measured in vitro using 4-(2-pyridylazo) resorcinol (PAR) colorimetric zinc assay as described in the preceding Examples. The change in absorbance of PAR after PAR-zinc ion complex formation was measured at 500 nm (Dinkova-Kostova et al., (2005) Biochemistry 44(18): 6889-6899). To determine chelation of zinc from MT-1 by compound 3 in vitro, MT-125 μM in […] volume of 0.2M Tris-HCl, pH 7.5 was added to 96-well plate. Compound 3 (0.15 to 60 μM) in 80% acetonitrile/20% DMSO was added to MT-1 for 15 min at room temperature. PAR (200 μM in 0.2M Tris-HCl, pH 7.5) was added and the color development of PAR-zinc complex was measured by a multi-well spectrophotometer at 500 nm as shown in FIG. 47.

Q: Which “induction of KLF4 in tumour xenografts” value (KLF4; 50 mg/kg/d, 35 days, versus vehicle) does the source give for `Cc1[nH]c2ccccc2c1-c1nc2c3cccnc3c3ncccc3c2[nH]1` [Compound 3] here?
A: approximately 1.5 fold

Q: And the “KLF4 gene expression in xenograft tissue, change” value (KLF4; 100 mg/kg i.p., 14 days or 2 cycles of 5 days)?
A: increase in KLF4 gene; also recorded: significant increase in KLF4

Q: What about the cell cycle progression [1] of the same compound?
A: induced a block in cell cycle progression at the G1 phase

Q: And the KLF5 gene expression (KLF5)?
A: decrease in KLF5 gene expression

Q: What about the “PAR absorbance of MT (removal of zinc from metallothionein)” value [2] of the same compound?
A: Dose-dependent decreases in PAR absorbance
